Results taken from PMC8625207, “Antikinetoplastid Activity of Sesquiterpenes Isolated from the Zoanthid Palythoa aff. clavata” (Pharmaceuticals, 2021).

How the values were obtained:
[1] = alamarBlue cytotoxicity on murine macrophages; format: cell-based; conditions: mouse, J774A.1 macrophages; 24 h of incubation; read-out: Macrophages J744A.1 CC50
[2] = test system: epimastigotes of Trypanosoma cruzi (Y strain); assay: alamarBlue activity against epimastigotes of T. cruzi; format: cell-based; conditions: for IC50: Trypanosoma cruzi, 72 h of incubation, mean with standard deviation; for Epimastigotes T. cruzi SI: selectivity index CC50/IC50
Method: (§1) For the anti-leishmanicidal experiments, promastigotes and amastigotes of Leishmania amazonensis strain (MHOM/BR/77/LTB0016) and promastigotes of Leishmania donovani strain (MHOM/IN/90/GE1F8R) were used, and they were maintained in RPMI 1640 medium (Gibco, Waltham, MA, USA) at 26 °C. For the trypanocidal experiments, epimastigotes of Trypanosoma cruzi (Y strain) were used, and they were maintained in liver infusion tryptose (LIT) medium supplemented with 10% of fetal bovine serum (FBS) at 26 °C. Murine macrophages J774A.1 (ATCC #TIB-67), maintained in DMEM medium at 37 °C with 5% CO2, were used for the cytotoxic activity assays.
(§2) For the activity against extracellular parasites of kinetoplastid, Leishmania and Trypanosoma parasites, in a 96-well plate, serial dilutions of the compounds were added with dilutions of 10^5 parasites per well and a 10% of alamarBlue Cell Viability Reagent® (Thermo Fisher Scientific, Waltham, MA, USA). After 72 h of incubation at 26 °C, the fluorescence of each well was measured in the EnSpire Multimode Plate Reader® (PerkinElmer, Thermo Fisher Scientific, Madrid, Spain). The inhibitory concentration 50 (IC50) was calculated by nonlinear regression analysis.

T. cruzi [3] = assay: ATP levels, CellTiter-Glo; format: cell-based, Trypanosoma cruzi; conditions: IC90, 24 h, negative control = 100%
Method: (§3) The levels of ATP were measured by using CellTiter-Glo® reagent, and values of luminescence were obtained by the EnSpire Multimode Plate Reader®. Results were processed and represented in Figure 4 as the percentage of ATP relative to the negative control (without treatment) that corresponds with 100% of ATP level.
(§4) The levels of ATP in the wells were measured by using the CellTiter-Glo® Luminescent Cell Viability Assay (Promega, WI, USA). […] These volumes were transferred to a white plate, and 25 μL of kit was added to each well. After 10 min of incubation at room temperature, the luminescence was determined by using the EnSpire Multimode Plate Reader® (PerkinElmer), and the results were expressed as the percentage of production of ATP relative to the negative control (without any treatment). All of the experiments were performed in triplicate in three different days (n = 3).

[4] = test system: epimastigotes of T. cruzi; assay: Chromatin condensation, Hoechst 33342/propidium iodide; format: cell-based, Trypanosoma cruzi; conditions: IC90, 24 h
[5] = test system: amastigotes of L. amazonensis; assay: alamarBlue activity against intracellular amastigotes of L. amazonensis in murine macrophages; format: cell-based, Leishmania amazonensis; conditions: for IC50: Leishmania amazonensis, Macrophage, 24 h of incubation, intracellular form in murine macrophages; for Amastigotes L. amazonensis SI: selectivity index CC50/IC50
Method: as §1
To determinate the IC50 against the intracellular form of the parasite amastigotes of L. amazonensis, the alamarBlue colorimetric method was also used. In a 96-well plate, murine macrophages were added in a concentration of 10^4 cells per well. After adherence of the cells, 10^5 promastigotes of the parasite were added to reach 1:10 cell:parasites per well. After 24 h of incubation at 37 °C with 5% of CO2 for the internalization of the parasite, the wells were washed, and serial dilutions of the compounds were added. After an incubation of 24 h with the compounds, the wells were washed, and the macrophages were broken with a solution of SDS (Sodium dodecyl sulfate) at 0.05% for 30 s. After adding fresh RPMI medium, we added 10% of alamarBlue, and the plates were incubated at 26 °C for 96 h. Finally, the fluorescence was measured by using the EnSpire Multimode Plate Reader® (PerkinElmer, Thermo Fisher Scientific, Madrid, Spain), and the IC50 of each compound was calculated.

[6] = test system: promastigotes of Leishmania donovani strain (MHOM/IN/90/GE1F8R); assay: alamarBlue activity against promastigotes of L. donovani; format: cell-based; conditions: for IC50: Leishmania donovani, 72 h of incubation, mean with standard deviation; for Promastigotes L. donovani SI: selectivity index CC50/IC50 (macrophages J744A.1 vs parasite)
Method: as §1, §2

[7] = test system: epimastigotes of T. cruzi; assay: Reactive oxygen species detection, CellROX Deep Red; format: cell-based, Trypanosoma cruzi; conditions: IC90, 24 h
[8] = test system: promastigotes of L. amazonensis; assay: Chromatin condensation, Hoechst 33342/propidium iodide; format: cell-based, Leishmania amazonensis; conditions: IC90, 24 h
L. amazonensis [9] = assay: ATP levels, CellTiter-Glo; format: cell-based, Leishmania amazonensis; conditions: IC90, 24 h, negative control = 100%
Method: as §3, §4

[10] = test system: promastigotes of L. amazonensis; assay: Plasmatic membrane permeability, SYTOX Green; format: cell-based, Leishmania amazonensis; conditions: IC90, 24 h
[11] = test system: promastigotes of Leishmania amazonensis strain (MHOM/BR/77/LTB0016); assay: alamarBlue activity against promastigotes of L. amazonensis; format: cell-based; conditions: for IC50: Leishmania amazonensis, 72 h of incubation, mean with standard deviation; for Promastigotes L. amazonensis SI: selectivity index CC50/IC50
Method: as §1, §2

[12] = test system: epimastigotes of T. cruzi
[13] = test system: promastigotes of L. donovani; assay: Chromatin condensation, Hoechst 33342/propidium iodide; format: cell-based, Leishmania donovani; conditions: IC90, 24 h
[14] = test system: promastigotes of L. donovani
L. amazonensis [15] = assay: Mitochondrial membrane potential, JC-1; format: cell-based, Leishmania amazonensis; conditions: IC90, 24 h
Method: The alterations on the mitochondrial membrane potential were measured by using JC-1® reagent. The results were expressed in percentage of variations in the mitochondrial membrane potential relative to the untreated control.
The alterations in the mitochondrial membrane potential were determined by using the JC-1 Mitochondrial Membrane Potential Assay Kit® (Cayman Chemical, Ann Arbor, MI, USA). […] Finally, using the EnSpire Multimode Plate Reader® (PerkinElmer, Thermo Fisher Scientific, Madrid, Spain), we measured the fluorescence, and the results were expressed in the percentage relative to the negative control (without any treatment), using the ratio 595 nm/535 nm (aggregates/monomers). All of the experiments were performed in triplicate in three different days (n = 3).

[16] = test system: promastigotes of L. amazonensis; assay: Reactive oxygen species detection, CellROX Deep Red; format: cell-based, Leishmania amazonensis; conditions: IC90, 24 h
T. cruzi [17] = test system: T. cruzi; design: method as in PMID 17950283; conditions: read-out: IC50 against T. cruzi; cited from earlier work
T. brucei rhodes = test system: T. brucei rhodes; design: method as in PMID 19513006; conditions: cited from earlier work

**Q.** What does the source list for `C=C1CCC2C(=C)C(=O)OC2C=C(C)CCC1=O` (centres unmarked) [Anhydroartemorin (2), anhydroartemorin]?
**A.** CC50 at 24 h [1]: 179 ± 2.27 µM; IC50 [2]: 13 ± 4.95 µM; Epimastigotes T. cruzi SI [2]: 13.76; Percentage of ATP relative to the negative control (T. cruzi [3]): 27.17%; Chromatin condensation [4]: caused chromatin condensation; IC50 [5]: 7.44 ± 0.45 µM; Amastigotes L. amazonensis SI [5]: 24.06; IC50 [6]: > 102 µM; Promastigotes L. donovani SI [6]: <1.76; Reactive oxygen species detection [7]: intense fluorescence due to ROS detection; Chromatin condensation [8]: induced chromatin condensation; Percentage of ATP relative to the negative control (L. amazonensis [9]): 28.76%; Plasmatic membrane permeability [10]: increase on the plasmatic membrane permeability; IC50 [11]: 25.6 ± 5.88 µM; Promastigotes L. amazonensis SI [11]: 7.00; Plasmatic membrane permeability [12]: increase on the plasmatic membrane permeability

**Q.** Which results are given for `C=C1C(=O)OC2C=C(C)CCC=C(COC(C)=O)CCC12` (mixture of isomers) [cis,trans-costunolide-14-acetate (3), cis,trans-costunolide-14-acetate]?
**A.** CC50 at 24 h [1]: 51 ± 7.54 µM; IC50 [2]: 8.88 ± 0.91 µM; Epimastigotes T. cruzi SI [2]: 5.75; IC50 [5]: 24.6 ± 3.64 µM; Amastigotes L. amazonensis SI [5]: 2.08; IC50 [6]: 5.41 ± 1.28 µM; Promastigotes L. donovani SI [6]: 9.43; Chromatin condensation [13]: blue and red fluorescence was produced; IC50 [11]: 8.62 ± 1 µM; Promastigotes L. amazonensis SI [11]: 5.92; Plasmatic membrane permeability [14]: increase on the plasmatic membrane permeability

**Q.** What does the source list for `C=C1C(=O)O[C@@H]2[C@@H]3[C@@](C)(CC[C@@H]12)[C@H](O)CC[C@]3(C)O` [4b-Hydroxyarbusculin A (11), 4β-hydroxyarbusculin A]?
**A.** CC50 at 24 h [1]: > 403 µM; IC50 [2]: > 201 µM; IC50 [5]: 15.8 ± 1.01 µM; Amastigotes L. amazonensis SI [5]: >25.47; Amastigotes L. amazonensis SI ([5]; listed as 4β-hydroxyarbusculin A (11)): > 25.47; IC50 [6]: > 201 µM; Mitochondrial membrane potential relative to the negative control (L. amazonensis [15]): 40.99%; Chromatin condensation [8]: induced chromatin condensation; Plasmatic membrane permeability [10]: increase on the plasmatic membrane permeability; IC50 [11]: 76.4 ± 5.72 µM; Promastigotes L. amazonensis SI [11]: >5.27; Reactive oxygen species detection [16]: presence of red fluorescence

**Q.** For `C=C1C(=O)O[C@H]2[C@H]1CC/C(C)=C/CC[C@@]1(C)O[C@@H]21` [Parthenolide (15), parthenolide], which IC50 (T. cruzi [17]) is on record?
**A.** 2.01 µM

**Q.** Which “selectivity against T. brucei rhodes” value (T. brucei rhodes) does the source give for `C=C1C(=O)OC2C1CCC1(C)C(O)CCC(=C)C21` (centres unmarked) [compound 19] here?
**A.** high selectivity

**Q.** With `CCCCCCCCCCCCCCCCOP(=O)([O-])OCC[N+](C)(C)C` [Miltefosine, reference compound] as the compound, how does the CC50 at 24 h [1] read?
**A.** 72.2 ± 3.06 µM

**Q.** What about the “Amastigotes L. amazonensis SI” value [5] of the same compound?
**A.** 23.17

**Q.** What about the “Promastigotes L. donovani SI” value [6] of the same compound?
**A.** 21.74

**Q.** And the “Promastigotes L. amazonensis SI” value [11]?
**A.** 11.14

**Q.** For `C=C1CCC2C(=C)C(=O)OC2C=C(C)CCC1O` (centres unmarked) [Artemorin (1), artemorin], which CC50 at 24 h [1] is on record?
**A.** > 403 µM

**Q.** And the IC50 [2]?
**A.** 81 ± 12 µM

**Q.** What about the “Epimastigotes T. cruzi SI” value [2] of the same compound?
**A.** >4.97

**Q.** What about the IC50 [5] of the same compound?
**A.** 40.1 ± 3.44 µM

**Q.** And the “Amastigotes L. amazonensis SI” value [5]?
**A.** >10.04

**Q.** And the IC50 [6]?
**A.** > 201 µM

**Q.** And the IC50 [11]?
**A.** 40.9 ± 2.82 µM

**Q.** And the “Promastigotes L. amazonensis SI” value [11]?
**A.** >9.85
